# Experiments:
# [1] = tested on: AAD-13 (v1) gene T0 tobacco plants; experiment: 2,4-D DMA response of AAD-13 (v1) T0 tobacco; type: in vivo, Nicotiana tabacum; conditions: for % Injury 20-40% (individuals) / % Injury <20% (individuals) / % Injury >40% (individuals) / % Injury Ave: 14 days after application
# From the text: (§1) Following the acclimation in the greenhouse T0 plants were then randomly assigned to various rates of 2,4-D DMA ranging from 140 to 2240 g ae/ha at […] increments. For tobacco, 140 g ae/ha 2,4-D is an effective dose to distinguish sensitive plants from ones with meaningful levels of resistance.
# [2] = tested on: PAT/Cry1F-transformed tobacco; experiment: 2,4-D DMA response of PAT/Cry1F transformed control T0 tobacco; type: in vivo, Nicotiana tabacum; conditions: 14 days after application
# From the text: as §1
# [3] = tested on: Wildtype (untransformed control) Arabidopsis; experiment: R-dichlorprop response of wildtype Arabidopsis; type: in vivo, Arabidopsis thaliana; conditions: 800 g ae/ha postemergence, 14 DAT
# Description: All auxin herbicide applications were made using the DeVilbiss sprayer as described above to apply 703 L/ha spray volume (0.4 ml solution/3-inch pot) or applied by track sprayer in a 187 L/ha spray volume. 2,4-D used was either technical grade (Sigma, St. Louis, Mo.) dissolved in DMSO and diluted in water (<1% DMSO final concentration) or the commercial dimethylamine salt formulation (456 g ae/L, NuFarm, St Joseph, Mo.). Dichlorprop used was commercial grade formulated as potassium salt of R-dichlorprop (600 g ai/L, AH Marks). As herbicide rates increased beyond 800 g ae/ha, the pH of the spray solution became exceedingly acidic, burning the leaves of young, tender Arabidopsis plants and complicating evaluation of the primary effects of the herbicides.
# The fact that AAD-1 (v3) will metabolize R-dichlorprop well enough to impart commercially acceptable tolerance is one distinguishing characteristic that separates the three genes (Table 12 and Example 7 of PCT/US2006/042133 (Wright et al., filed Oct. 27, 2006). AAD-1 and AAD-13 are considered R- and S-specific α-ketoglutarate dioxygenases, respectively.
# [4] = tested on: Segregating T2 AAD-13 (v1) Arabidopsis plants (pDAB4114.01.094); experiment: Foliar pyridyloxyacetate response of segregating T2 AAD-13 (v1) Arabidopsis; type: in vivo, Arabidopsis thaliana
# Description: The ability of AAD-13 (v1) to provide resistance to other aryloxyalkanoate auxin herbicides in transgenic Arabidopsis was determined by foliar application of various substrates. T2 generation Arabidopsis seed was stratified, and sown into selection trays much like that of Arabidopsis (Example 6.4). A transformed-control line containing PAT and the insect resistance gene Cry1F was planted in a similar manner. Seedlings were transferred to individual 3-inch pots in the greenhouse. All plants were sprayed with the use of a track sprayer set at 187 L/ha. The plants were sprayed with a range of pyridyloxyacetate herbicides: 200-800 g ae/ha triclopyr (Garlon 3A, Dow AgroSciences) and 200-800 g ae/ha fluoroxypyr (Starane, Dow AgroSciences). The 2,4-D metabolite resulting from AAD-13 activity, 2,4-dichlorophenol (DCP, Sigma) (at a molar equivalent to 280-2240 g ae/ha of 2,4-D, technical grade will also be tested. All applications were formulated in water. Each treatment was replicated 3-4 times. Plants were evaluated at 3 and 14 days after treatment.
compound,measurement,setting,value
"CNC.O=C(O)COc1ccc(Cl)cc1Cl [2,4-D DMA]",% Injury 20-40% (individuals),[1]; 140 g ae/ha,0
same,% Injury <20% (individuals),[1]; 140 g ae/ha,2
same,% Injury >40% (individuals),[1]; 140 g ae/ha,0
same,% Injury Ave,[1]; 140 g ae/ha,8.0%
same,% Injury 20-40% (individuals),[1]; 560 g ae/ha,0
same,% Injury <20% (individuals),[1]; 560 g ae/ha,2
same,% Injury >40% (individuals),[1]; 560 g ae/ha,0
same,% Injury Ave,[1]; 560 g ae/ha,3.0%
same,% Injury 20-40% (individuals),[1]; 2240 g ae/ha,0
same,% Injury <20% (individuals),[1]; 2240 g ae/ha,2
same,% Injury >40% (individuals),[1]; 2240 g ae/ha,0
same,% Injury Ave,[1]; 2240 g ae/ha,5.0%
same,rate to which robust tolerance is provided,[1]; T0 tobacco,at least 2240 g ae/ha
same,% Injury 20-40% (individuals),[2]; 140 g ae/ha,1
same,% Injury <20% (individuals),[2]; 140 g ae/ha,0
same,% Injury >40% (individuals),[2]; 140 g ae/ha,2
same,% Injury Ave,[2]; 140 g ae/ha,47.0%
same,% Injury 20-40% (individuals),[2]; 560 g ae/ha,0
same,% Injury <20% (individuals),[2]; 560 g ae/ha,0
same,% Injury >40% (individuals),[2]; 560 g ae/ha,3
same,% Injury Ave,[2]; 560 g ae/ha,75.0%
same,% Injury 20-40% (individuals),[2]; 2240 g ae/ha,0
same,% Injury <20% (individuals),[2]; 2240 g ae/ha,0
same,% Injury >40% (individuals),[2]; 2240 g ae/ha,3
same,% Injury Ave,[2]; 2240 g ae/ha,97.0%
"C[C@@H](Oc1ccc(Cl)cc1Cl)C(=O)O [R-dichloroprop, R-dichlorprop]",% Injury 20-40% (individuals),[3],0
same,% Injury <20% (individuals),[3],0
same,% Injury >40% (individuals),[3],20
same,% Injury Ave,[3],100%
Nc1c(Cl)c(F)nc(OCC(=O)O)c1Cl [fluoroxypyr],Ave. % Injury 14DAT,[4]; 200 g ae/ha foliar-applied,10%
same,Ave. % Injury 14DAT,[4]; 400 g ae/ha foliar-applied,16%
same,Ave. % Injury 14DAT,[4]; 800 g ae/ha foliar-applied,55%
same,rate up to which robust resistance is provided,[4]; foliar application,up to 400 g ae/ha
O=C(O)COc1nc(Cl)c(Cl)cc1Cl [triclopyr],Ave. % Injury 14DAT,[4]; 200 g ae/ha foliar-applied,75%
same,Ave. % Injury 14DAT,[4]; 400 g ae/ha foliar-applied,90%
same,Ave. % Injury 14DAT,[4]; 800 g ae/ha foliar-applied,100%

# Reference: patent US9062284B2, “Uses and detection of herbicide resistance genes for resistance to aryloxyalkanoate herbicides” (Dow ArgoSciences LLC, priority 2007, dated 2015)
